Experimental findings from US20210371827A1, “METHOD FOR PREPARING CANCER STEM CELL SPHEROIDS” (KOREA ADVANCED INSTITUTE OF SCIENCE AND TECHNOLOGY, priority 2018, published 2021) are described below.

What all share (experiment): Cell viability for doxorubicin (WST-1)
What all share (assay type): cell-based, human
On the technique in general: Tetrazolium dyes change colour on reduction, which living cells bring about.

The subject of assay [1] is SKOV3-ssiCSC. To be noted: various concentrations, 24 hours. The protocol:
(§1) ssiCSC spheroids prepared from different kinds of cancer cells (SKOV3, MCF-7, Hep3B and SW480) were isolated using trypsin (TrypLE Express, Gibco), and the isolated cells were washed with D-PBS twice. The ssiCSC was plated on a 96-well plate (1×10^4 cells/well) and was cultured in a cell growth medium at 37° C. for 24 hours. Then, the medium was removed, and a new medium comprising various concentrations of doxorubicin was added to each well and cultured for 24 hours. Next, each well was washed with D-PBS and was replaced with a new cell growth medium of 100 μl, and then WST-1 cell proliferation reagent (Roche) of 10 μl was added and cultured for 4 hours. Then, the absorbance at 450 nm (standard wavelength, 600 nm) was measured using a microplate reader (Molecular Devices).
(§2) In addition, the drug resistance of ssiCSC for doxorubicin (DOX) known as an anticancer agent was confirmed. Specifically, ssiCSC spheroids prepared by culturing on the pV4D4 surface for 8 days were isolated to single cells, and the cell was cultured on the conventional TCP surface to a 2D single layer, and then DOX at various concentrations was treated for 24 hours. […] The SW480-ssiCSC maintained drug resistance when subcultured on the TCP surface twice, and through this, it can be seen that original cancer cells were transformed into CSC-like cells (FIG. 12c).

Assay [2] relates to ssiCSC (SKOV3, MCF-7, Hep3B and SW480). Particulars: 50 μM, 24 hours; compared to the 2D control group. The protocol: as §1, §2
Assay [3] concerns SW480-ssiCSC. To be noted: various concentrations, 24 hours. The protocol: as §1, §2

With `COc1cccc2c1C(=O)c1c(O)c3c(c(O)c1C2=O)C[C@@](O)(C(=O)CO)C[C@@H]3O[C@H]1C[C@H](N)[C@H](O)[C@H](C)O1` [Dox, doxorubicin], the “drug resistance (cell viability)” value in assay [1] is “complete resistance”; in assay [2], “higher resistance”; in assay [3] it was “complete resistance”.
